Assay results published in ChEMBL document CHEMBL6127041, “Dual-target inhibitors based on acetylcholinesterase: Novel agents for Alzheimer's disease” (Eur J Med Chem, 2024).

Columns and labels:
Acetylcholinesterase [1] = biological target: T1, Acetylcholinesterase (Homo sapiens, UniProt P22303); test: Inhibition of AChE (unknown origin) at 40 uM by Ellman's method relative to control
Acetylcholinesterase [2] = biological target: T1, Acetylcholinesterase; test: Inhibition of AChE (unknown origin) incubated for 1 hr by Ellman's method
Beta-secretase 1 [3] = biological target: T2, Beta-secretase 1 (Homo sapiens, UniProt P56817); test: Inhibition of BACE-1 (unknown origin)
T2 sequence (P56817 whole entry): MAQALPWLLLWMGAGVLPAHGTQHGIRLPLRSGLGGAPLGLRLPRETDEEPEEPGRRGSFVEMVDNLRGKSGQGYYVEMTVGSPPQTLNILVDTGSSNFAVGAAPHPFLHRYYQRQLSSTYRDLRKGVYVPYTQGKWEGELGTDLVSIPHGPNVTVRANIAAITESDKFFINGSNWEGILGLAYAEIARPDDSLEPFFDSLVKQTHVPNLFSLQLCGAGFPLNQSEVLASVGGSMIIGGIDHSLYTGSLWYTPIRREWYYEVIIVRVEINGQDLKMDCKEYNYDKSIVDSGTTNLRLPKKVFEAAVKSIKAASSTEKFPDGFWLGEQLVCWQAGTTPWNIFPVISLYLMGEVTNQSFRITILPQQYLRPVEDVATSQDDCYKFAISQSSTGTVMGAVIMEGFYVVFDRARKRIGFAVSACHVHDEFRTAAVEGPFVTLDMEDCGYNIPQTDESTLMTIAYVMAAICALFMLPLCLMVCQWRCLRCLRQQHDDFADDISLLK

[4] = biological target: T3, Amine oxidase [flavin-containing] B (Homo sapiens, UniProt P27338); test: Inhibition of MAO-B (unknown origin)
T3 sequence (P27338 whole entry): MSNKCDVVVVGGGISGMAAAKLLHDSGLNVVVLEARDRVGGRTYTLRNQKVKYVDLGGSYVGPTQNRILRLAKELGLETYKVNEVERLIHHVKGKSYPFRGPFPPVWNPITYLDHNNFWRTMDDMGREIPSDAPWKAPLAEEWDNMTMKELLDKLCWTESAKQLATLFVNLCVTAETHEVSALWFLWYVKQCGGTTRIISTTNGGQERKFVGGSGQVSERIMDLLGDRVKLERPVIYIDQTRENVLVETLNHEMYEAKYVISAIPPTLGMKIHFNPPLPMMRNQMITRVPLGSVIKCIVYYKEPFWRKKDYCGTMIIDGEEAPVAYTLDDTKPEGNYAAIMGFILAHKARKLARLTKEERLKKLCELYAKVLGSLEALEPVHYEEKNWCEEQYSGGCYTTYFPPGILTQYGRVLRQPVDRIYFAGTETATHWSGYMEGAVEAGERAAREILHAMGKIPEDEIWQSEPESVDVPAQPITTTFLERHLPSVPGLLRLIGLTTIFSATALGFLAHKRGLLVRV

Acetylcholinesterase [5] = biological target: T1, Acetylcholinesterase
Description: Inhibition of human AChE by Ellman's method

Beta-secretase 1 [6] = biological target: T2, Beta-secretase 1; test: Inhibition of BACE-1 (unknown origin) measured after 2 hrs by FRET assay
Acetylcholinesterase [7] = biological target: T4, Acetylcholinesterase (Electrophorus electricus, UniProt O42275); test: Inhibition of electric eel AChE using acetylthiocholine iodide as substrate preincubated with compounds for 20 mins followed by substrate addition and measured after 5 mins by Ellman's method
T4 sequence (O42275 whole entry): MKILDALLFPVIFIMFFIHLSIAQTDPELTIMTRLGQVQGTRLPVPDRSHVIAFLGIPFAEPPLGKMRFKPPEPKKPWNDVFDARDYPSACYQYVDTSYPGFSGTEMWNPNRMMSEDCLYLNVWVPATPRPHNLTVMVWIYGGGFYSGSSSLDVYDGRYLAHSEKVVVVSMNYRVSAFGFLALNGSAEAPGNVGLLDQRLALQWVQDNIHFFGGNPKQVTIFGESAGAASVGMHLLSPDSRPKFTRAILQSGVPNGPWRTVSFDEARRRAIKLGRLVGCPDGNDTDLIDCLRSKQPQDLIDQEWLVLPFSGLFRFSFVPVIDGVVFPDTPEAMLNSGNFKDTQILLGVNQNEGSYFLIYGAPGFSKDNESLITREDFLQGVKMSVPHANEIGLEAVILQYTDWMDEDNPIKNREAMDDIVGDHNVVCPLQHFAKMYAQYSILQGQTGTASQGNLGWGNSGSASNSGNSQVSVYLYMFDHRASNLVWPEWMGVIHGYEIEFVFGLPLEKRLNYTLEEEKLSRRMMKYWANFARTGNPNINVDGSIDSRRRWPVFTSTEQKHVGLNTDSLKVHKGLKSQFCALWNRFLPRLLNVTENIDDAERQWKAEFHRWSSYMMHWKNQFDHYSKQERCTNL

Acetylcholinesterase [8] = biological target: T1, Acetylcholinesterase; test: Inhibition of human recombinant AChE using acetylthiocholine iodide as substratE incubated for 20 mins by DTNB reagent based Ellman's method
Beta-secretase 1 [9] = biological target: T2, Beta-secretase 1; test: Inhibition of human BACE-1 by FRET assay
Acetylcholinesterase [10] = biological target: T1, Acetylcholinesterase; test: Inhibition of AChE (unknown origin)
Acetylcholinesterase [11] = biological target: T1, Acetylcholinesterase; test: Inhibition of AChE (unknown origin) by Ellman's method
Acetylcholinesterase [12] = biological target: T1, Acetylcholinesterase; test: Inhibition of AChE (unknown origin) using acetylthiocholine iodide as substrate measured after 15 mins by Ellman's method
Beta-secretase 1 [13] = biological target: T2, Beta-secretase 1; test: Inhibition of BACE-1 (unknown origin) incubated for 60 mins by TR-FRET assay
Cholinesterase [14] = biological target: Cholinesterase (Homo sapiens, UniProt P06276); test: Inhibition of BChE (unknown origin) incubated for 10 mins by Ellman's method
Chain of Cholinesterase (Homo sapiens, UniProt P06276) (P06276 whole entry): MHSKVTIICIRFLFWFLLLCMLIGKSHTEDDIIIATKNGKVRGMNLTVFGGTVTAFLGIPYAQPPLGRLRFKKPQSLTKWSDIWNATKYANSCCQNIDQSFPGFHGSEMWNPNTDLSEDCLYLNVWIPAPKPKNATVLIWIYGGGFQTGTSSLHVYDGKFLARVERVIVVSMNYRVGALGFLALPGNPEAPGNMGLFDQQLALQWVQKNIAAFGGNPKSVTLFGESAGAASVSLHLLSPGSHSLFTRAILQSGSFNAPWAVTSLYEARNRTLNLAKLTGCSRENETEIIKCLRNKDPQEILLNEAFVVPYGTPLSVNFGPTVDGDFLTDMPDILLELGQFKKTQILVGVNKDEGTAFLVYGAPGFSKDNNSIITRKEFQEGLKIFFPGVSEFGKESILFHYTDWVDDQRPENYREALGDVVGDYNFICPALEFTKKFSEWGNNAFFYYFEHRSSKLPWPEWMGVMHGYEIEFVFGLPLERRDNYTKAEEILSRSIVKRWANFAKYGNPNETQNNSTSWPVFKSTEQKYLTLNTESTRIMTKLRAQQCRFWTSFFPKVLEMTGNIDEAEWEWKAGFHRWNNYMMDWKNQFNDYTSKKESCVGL

[15] = biological target: T5, Amine oxidase [flavin-containing] A (Homo sapiens, UniProt P21397); test: Inhibition of MAO-A (unknown origin)
T5 sequence (P21397 whole entry): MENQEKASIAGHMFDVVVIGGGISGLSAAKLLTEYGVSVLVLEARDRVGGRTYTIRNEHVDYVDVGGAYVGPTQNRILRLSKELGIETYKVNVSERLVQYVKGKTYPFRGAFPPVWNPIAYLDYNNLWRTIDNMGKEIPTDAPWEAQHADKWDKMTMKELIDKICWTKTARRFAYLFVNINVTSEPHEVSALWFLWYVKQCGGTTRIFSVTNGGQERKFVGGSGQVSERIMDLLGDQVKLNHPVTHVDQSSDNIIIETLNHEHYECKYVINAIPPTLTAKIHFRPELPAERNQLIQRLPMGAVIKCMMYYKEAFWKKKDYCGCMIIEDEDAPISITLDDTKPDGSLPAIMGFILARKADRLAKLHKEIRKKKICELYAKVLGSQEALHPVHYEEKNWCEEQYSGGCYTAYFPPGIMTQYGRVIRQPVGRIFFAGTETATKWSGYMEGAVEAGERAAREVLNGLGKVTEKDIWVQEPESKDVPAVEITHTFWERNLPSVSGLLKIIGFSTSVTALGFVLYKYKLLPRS

Acetylcholinesterase [16] = biological target: T4, Acetylcholinesterase; test: Inhibition of electric eel AChE using acetylthiocholine iodide as substrate preincubated for 5 mins followed by substrate addition by DTNB reagent based Ellman's method
[17] = biological target: Glycogen synthase kinase-3 beta (Homo sapiens, UniProt P49841); test: Inhibition of human recombinant GSK3beta by ADP-Glo Kinase Assay
Chain of Glycogen synthase kinase-3 beta (P49841 whole entry): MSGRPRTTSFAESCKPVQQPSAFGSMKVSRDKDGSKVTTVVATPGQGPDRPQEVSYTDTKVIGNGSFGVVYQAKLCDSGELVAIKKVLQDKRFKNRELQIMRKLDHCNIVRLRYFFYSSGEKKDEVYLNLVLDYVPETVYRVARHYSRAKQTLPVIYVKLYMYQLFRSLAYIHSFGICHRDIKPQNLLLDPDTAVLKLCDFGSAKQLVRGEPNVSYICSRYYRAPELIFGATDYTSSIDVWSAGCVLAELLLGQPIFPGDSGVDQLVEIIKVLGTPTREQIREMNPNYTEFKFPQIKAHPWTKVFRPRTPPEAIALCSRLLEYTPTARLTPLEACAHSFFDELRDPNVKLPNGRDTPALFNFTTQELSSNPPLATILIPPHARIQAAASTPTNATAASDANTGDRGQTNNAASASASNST

Acetylcholinesterase [18] = biological target: T1, Acetylcholinesterase; remark: listed apart in the source
Acetylcholinesterase [19] = biological target: T1, Acetylcholinesterase; test: Inhibition of AChE (unknown origin) using acetylthiocholine iodide as substrate measured for 20 mins by Ellman's method
[20] = biological target: High affinity cGMP-specific 3',5'-cyclic phosphodiesterase 9A (Homo sapiens, UniProt O76083); test: Inhibition of PDE9A (unknown origin)
Chain of High affinity cGMP-specific 3',5'-cyclic phosphodiesterase 9A (O76083 whole entry): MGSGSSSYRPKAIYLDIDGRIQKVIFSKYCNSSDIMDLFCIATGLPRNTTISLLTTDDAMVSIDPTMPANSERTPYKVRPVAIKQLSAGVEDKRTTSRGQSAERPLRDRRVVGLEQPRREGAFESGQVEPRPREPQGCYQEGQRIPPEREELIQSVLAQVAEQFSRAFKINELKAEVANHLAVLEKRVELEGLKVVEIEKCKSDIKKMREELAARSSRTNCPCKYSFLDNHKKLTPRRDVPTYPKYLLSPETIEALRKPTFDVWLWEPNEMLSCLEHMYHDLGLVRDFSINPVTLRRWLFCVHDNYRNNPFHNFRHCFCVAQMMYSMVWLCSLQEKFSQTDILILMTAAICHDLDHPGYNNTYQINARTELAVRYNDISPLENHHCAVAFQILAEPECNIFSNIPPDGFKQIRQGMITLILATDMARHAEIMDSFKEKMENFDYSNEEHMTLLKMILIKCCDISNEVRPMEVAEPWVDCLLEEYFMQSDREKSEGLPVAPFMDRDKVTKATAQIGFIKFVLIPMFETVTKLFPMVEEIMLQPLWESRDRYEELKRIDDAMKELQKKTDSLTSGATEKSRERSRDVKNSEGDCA

Cholinesterase [21] = biological target: Cholinesterase (Equus caballus, UniProt P81908); test: Inhibition of equine serum BuChE using butyrylthiocholine iodide as substrate preincubated for 5 mins followed by substrate addition by DTNB reagent based Ellman's method
Chain of Cholinesterase (Equus caballus, UniProt P81908) (P81908 whole entry): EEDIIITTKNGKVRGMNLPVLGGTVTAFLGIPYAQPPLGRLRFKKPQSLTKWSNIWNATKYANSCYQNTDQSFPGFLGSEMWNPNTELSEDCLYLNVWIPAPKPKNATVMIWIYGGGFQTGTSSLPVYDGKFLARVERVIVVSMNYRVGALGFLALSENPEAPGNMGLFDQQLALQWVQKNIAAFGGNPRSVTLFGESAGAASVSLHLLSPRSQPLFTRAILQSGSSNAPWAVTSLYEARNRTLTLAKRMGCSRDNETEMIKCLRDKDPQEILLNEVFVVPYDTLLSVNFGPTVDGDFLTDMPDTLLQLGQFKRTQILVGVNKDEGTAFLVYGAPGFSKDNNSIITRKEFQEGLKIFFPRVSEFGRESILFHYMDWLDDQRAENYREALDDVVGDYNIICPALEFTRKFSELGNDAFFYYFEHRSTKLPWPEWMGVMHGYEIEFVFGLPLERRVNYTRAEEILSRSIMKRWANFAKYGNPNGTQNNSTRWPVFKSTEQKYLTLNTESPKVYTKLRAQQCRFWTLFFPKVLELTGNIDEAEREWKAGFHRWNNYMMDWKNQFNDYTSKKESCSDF

[22] = Permeability of compound at pH 7.4 by PAMPA assay; format: ADME; settings: read-out: permeability

T1 sequence (P22303 whole entry): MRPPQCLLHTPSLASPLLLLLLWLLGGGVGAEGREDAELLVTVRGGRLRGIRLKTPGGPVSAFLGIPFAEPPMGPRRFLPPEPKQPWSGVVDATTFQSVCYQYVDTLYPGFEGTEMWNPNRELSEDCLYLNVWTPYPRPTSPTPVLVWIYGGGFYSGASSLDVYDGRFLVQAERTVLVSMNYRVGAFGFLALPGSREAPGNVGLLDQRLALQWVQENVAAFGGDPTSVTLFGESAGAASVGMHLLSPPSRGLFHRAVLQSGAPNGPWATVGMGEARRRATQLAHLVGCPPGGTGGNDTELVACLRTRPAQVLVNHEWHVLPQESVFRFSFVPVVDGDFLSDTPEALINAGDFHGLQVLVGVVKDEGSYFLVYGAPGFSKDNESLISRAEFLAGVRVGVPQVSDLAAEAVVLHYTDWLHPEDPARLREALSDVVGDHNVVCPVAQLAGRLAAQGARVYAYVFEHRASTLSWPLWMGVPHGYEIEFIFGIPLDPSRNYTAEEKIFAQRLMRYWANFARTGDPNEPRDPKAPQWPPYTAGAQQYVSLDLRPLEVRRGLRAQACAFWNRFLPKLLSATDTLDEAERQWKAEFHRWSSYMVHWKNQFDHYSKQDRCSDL

COc1ccc([C@@H]2c3[nH]c4ccccc4c3C[C@@H]3C(=O)N(CCC4CCN(Cc5ccccc5)CC4)CC(=O)N23)cc1
inhibition (Acetylcholinesterase [1]): 55.4%

COC(=O)c1ccc(/C=N/NC(=O)c2ccc(Cl)nc2)cc1
IC50 (Acetylcholinesterase [2]): 100 nM
IC50 (Beta-secretase 1 [3]): 2800 nM

COc1ccc(/C=C2\Oc3cc(OCCN4CCCC4)ccc3C2=O)c(OC)c1OC
IC50 [4]: 340 nM
IC50 (Acetylcholinesterase [5]): 1560 nM

COc1ccc2c(c1)C/C(=C/c1ccccc1-c1ccccc1)C2=O
IC50 (Beta-secretase 1 [6]): 125 nM
IC50 (Acetylcholinesterase [7]): 29.8 nM

COc1ccc(NC(=O)C2CCN(Cc3ccccc3)CC2)cc1
IC50 (Acetylcholinesterase [8]): 165 nM
IC50 (Beta-secretase 1 [9]): 253 nM

O=C(/C=C/c1ccccc1)c1ccccc1 [CHALCONE]
IC50 (Acetylcholinesterase [10]): 28200 nM

COc1ccc(NC(=O)C2CCN(Cc3ccccc3)CC2)cc1OC
IC50 (Acetylcholinesterase [8]): 145 nM
IC50 (Beta-secretase 1 [9]): 243 nM

Cn1c(NCCCCCCCNc2c3c(nc4cc(Cl)ccc24)CCCC3)nc(-c2ccncc2F)cc1=O
IC50 (Acetylcholinesterase [11]): 51.1 nM

COc1ccc2c3c1O[C@H]1C[C@@H](O)C=C[C@@]31CCN(CCCCCCNC13CC4CC(C)(CC(C)(C4)C1)C3)C2 [MEMAGAL]
IC50 (Acetylcholinesterase [11]): 1.16 nM

Nc1ccccc1C(=O)/C=C/c1ccc(Cl)nc1
IC50 (Acetylcholinesterase [12]): 19000 nM
IC50 (Beta-secretase 1 [13]): 8340 nM

CN1CCN(c2ccc(C(=O)/C=C/c3cc(Br)ccc3F)cc2)CC1
IC50 (Cholinesterase [14]): 9440 nM

CCO/C(C)=N/Oc1ccc(/C=C/C(=O)c2ccc(F)cc2)cc1
IC50 [15]: 17400 nM
IC50 (Acetylcholinesterase [16]): 670 nM
IC50 [4]: 20 nM

O=C(/C=C/c1ccc(Br)cc1)c1ccc(Cl)s1
IC50 [15]: 1360 nM
IC50 (Acetylcholinesterase [16]): 16200 nM
IC50 (Cholinesterase [14]): 19300 nM
IC50 [4]: 700 nM

COc1ccc2c(c1)C/C(=C/c1ccccc1-c1ccc3nc(N)ccc3c1)C2=O
IC50 (Beta-secretase 1 [6]): 13.1 nM
IC50 (Acetylcholinesterase [7]): 14.7 nM

COc1ccc2c(c1)C/C(=C/c1ccccc1-c1ccc3ccccc3c1)C2=O
IC50 (Beta-secretase 1 [9]): 101 nM

O=C1[C@@H]2Cc3c([nH]c4ccccc34)[C@@H](c3ccc4c(c3)OCO4)N2C(=O)CN1CCC1CCN(Cc2ccccc2)CC1
IC50 (Acetylcholinesterase [11]): 30 nM

O=C(CN1CCC(Cc2ccccc2)CC1)c1ccc2ccccc2c1
IC50 (Acetylcholinesterase [5]): 9130 nM

COc1nc(-c2ccnc(NC(=O)C3CC3)c2)sc1C(=O)NCNc1c2c(nc3ccccc13)CCCC2
IC50 [17]: 68 nM
IC50 (Acetylcholinesterase [18]): 6.3 nM

O=C(N/N=C/c1ccc([N+](=O)[O-])cc1)c1ccc(Cl)nc1
IC50 (Acetylcholinesterase [2]): 20 nM
IC50 (Beta-secretase 1 [3]): 200 nM

COc1cc(/C=N/NC(=O)c2ccc(Cl)nc2)ccc1O
IC50 (Acetylcholinesterase [2]): 30 nM
IC50 (Beta-secretase 1 [3]): 600 nM

Cc1ccc(/C=C/C(=O)c2ccccc2N)cn1
IC50 (Acetylcholinesterase [12]): 2920 nM

COc1ccccc1/C=C1\Oc2cc(OCCN3CCCC3)ccc2C1=O
IC50 [15]: > 100000 nM
IC50 [4]: 980 nM
IC50 (Acetylcholinesterase [19]): 2670 nM

O=C(/C=C/c1ccc(Cl)cc1)c1ccc(Cl)s1
IC50 [15]: 1600 nM
IC50 (Acetylcholinesterase [16]): 14800 nM
IC50 (Cholinesterase [14]): 19600 nM
IC50 [4]: 790 nM

O=C(/C=C/c1ccccc1)c1ccc(N2CCOCC2)cc1
IC50 [15]: > 40000 nM
IC50 (Cholinesterase [14]): > 40000 nM

O=c1[nH]c(COCCC2CCN(Cc3ccccc3)CC2)nc2c1cnn2C1CCCC1
IC50 (Acetylcholinesterase [10]): 230 nM
IC50 [20]: 530 nM

COc1ccc([C@@H]2c3[nH]c4ccccc4c3C[C@H]3C(=O)N(CCC4CCN(Cc5ccccc5)CC4)CC(=O)N23)cc1
IC50 (Acetylcholinesterase [11]): 10 nM

CCN(CCCCOc1ccc(C(=O)/C=C/c2ccc(N(C)C)cc2)c(O)c1)Cc1ccccc1N(C)C
IC50 (Acetylcholinesterase [16]): 130 nM
IC50 (Cholinesterase [14]): 130 nM

CCOc1ccc(C(=O)/C=C/c2ccccc2)cc1
IC50 [15]: 28500 nM
IC50 (Acetylcholinesterase [16]): 3230 nM
IC50 [4]: 400 nM

CN(C)c1ccc(/C=C/C(=O)c2ccc(N3CCOCC3)cc2)cc1
IC50 [15]: > 40000 nM
IC50 (Cholinesterase [14]): > 40000 nM

COc1ccc(/C=C/C(=N/Oc2ccc(/C=C/C(=O)c3ccc(F)cc3)cc2)c2ccc(OC)cc2)cc1
IC50 [4]: 20 nM

Fc1ccc(-c2nnc(N3CCN(c4ccccn4)CC3)o2)c(F)c1
IC50 (Beta-secretase 1 [3]): 210 nM
IC50 (Cholinesterase [21]): 160 nM

Nc1ccccc1C(=O)/C=C/c1cnc2ccccc2c1
IC50 (Acetylcholinesterase [12]): 540 nM
IC50 (Beta-secretase 1 [13]): 16900 nM

O=c1[nH]c(CCCCC2CCN(Cc3ccccc3)CC2)nc2c1cnn2C1CCCC1
IC50 (Acetylcholinesterase [10]): 40 nM
IC50 [20]: 280 nM

CN(Cc1ccccc1)Cc1ccc(/C=C2/Cc3ccc(OCCCCCN4CCN(C(c5ccc(F)cc5)c5ccc(F)cc5)CC4)cc3C2=O)cc1
IC50 (Beta-secretase 1 [6]): 341 nM
IC50 (Acetylcholinesterase [7]): 44.1 nM

COc1ccccc1NC(=O)C1CCN(Cc2ccccc2)CC1
IC50 (Acetylcholinesterase [8]): 157 nM
IC50 (Beta-secretase 1 [9]): 277 nM

CCOc1cc(/C=N/NC(=O)c2ccc(Cl)nc2)ccc1O
IC50 (Acetylcholinesterase [2]): 30 nM
IC50 (Beta-secretase 1 [3]): 700 nM

COc1ccc(-c2ccccc2/C=C2/Cc3cc(OC)ccc3C2=O)cc1
IC50 (Beta-secretase 1 [6]): 99.4 nM
IC50 (Acetylcholinesterase [7]): 21.2 nM

Nc1ccccc1C(=O)/C=C/c1cnc2c(c1)OCO2
IC50 (Acetylcholinesterase [12]): 4160 nM

COc1cc(/C=C2\Oc3cc(OCCN4CCCCC4)ccc3C2=O)cc(OC)c1OC
IC50 [15]: > 100000 nM
IC50 [4]: 340 nM
IC50 (Acetylcholinesterase [19]): 1560 nM

Clc1ccc(-c2nnc(CNC3CCN(Cc4ccccc4)CC3)o2)c(Cl)c1
IC50 (Beta-secretase 1 [3]): 250 nM
IC50 (Cholinesterase [21]): 210 nM

CCO/C(C)=N/Oc1ccc(/C=C/C(=O)c2ccc(C)cc2)cc1
IC50 [15]: 15000 nM
IC50 (Acetylcholinesterase [16]): 850 nM
IC50 [4]: 30 nM

COc1ccc(/C=N/NC(=O)c2ccc(Cl)nc2)cc1OC
IC50 (Acetylcholinesterase [2]): 30 nM
IC50 (Beta-secretase 1 [3]): 400 nM

O=c1ccoc2ccc(OCCCN3CCCCC3)cc12
IC50 [4]: 7200 nM
IC50 (Acetylcholinesterase [5]): 5580 nM

O=C(/C=C/c1ccc(F)cc1)c1ccc(Br)s1
IC50 [15]: 4060 nM
IC50 (Acetylcholinesterase [16]): 18200 nM
IC50 (Cholinesterase [14]): 16300 nM
IC50 [4]: 1710 nM

O=C(/C=C/c1ccc(OCc2ccccc2)cc1)c1ccc2c(c1)OCO2
IC50 [15]: 8610 nM
IC50 (Acetylcholinesterase [16]): 5400 nM
IC50 [4]: 1540 nM

CSc1ccc(/C=C/C(=O)c2ccccc2N)cn1
IC50 (Acetylcholinesterase [12]): 1220 nM

CN1CC(=O)N2[C@H](c3ccc4c(c3)OCO4)c3[nH]c4ccccc4c3C[C@@H]2C1=O
Papp at 18 h [22]: 2.16 ×10⁻⁶ cm/s

COc1cc(/C=C/c2nnc(-c3ccc(C(F)(F)F)cc3)o2)ccc1O
Papp at 18 h [22]: 5.3 ×10⁻⁶ cm/s

COc1nc(-c2ccnc(NC(=O)C3CC3)c2)sc1C(=O)NCCNc1c2c(nc3ccccc13)CCCC2
IC50 [17]: 66 nM
IC50 (Acetylcholinesterase [18]): 6.4 nM
